Test results from patent US20100285959A1, “HERBICIDAL MIXTURES” (priority 2006, published 2010).

How the values were obtained:
common waterhemp (AMATA) = assay: Test 10 field trial, preemergence; type: in vivo, Amaranthus tamariscinus; details: 28 DAA
Description: (§1) Corn seeds (hybrid ‘Pioneer 33P65 RR’) were planted in mid spring season, 2.5 cm deep in a silt loam soil. Plots were 9.1 m long by 3.0 m wide with rows spaced 76 cm apart. The field was managed using conventional tillage practices. […] Results are the means of the three replicates.

corn (ZEAMD) [1] = assay: Test 1 field trial, preemergence; type: in vivo, Zea mays ssp. indentata; details: hybrid Pioneer 34N43, corn (Zea mays ssp. indentata), in vivo
Description: (§2) Corn seeds (hybrid ‘Pioneer 34N43’) were planted in mid spring season, 3.8 cm deep in a silt loam soil having 4.6% organic matter and a pH of 6. Plots were 10.7 m long by 1.5 m wide with rows spaced 76 cm apart. Seeds were spaced 18 cm apart within the rows. The field was managed using conventional tillage practices. […] Results are summarized in Table 1 and are the means of the three replicates. […] Colby's Equation (Colby, S. R. “Calculating Synergistic and Antagonistic Responses of Herbicide Combinations,” Weeds, 15(1), pp 20-22 (1967)) calculates the expected additive effect of herbicidal mixtures, and for two active ingredients is of the form:
(§3) Pa+b=Pa+Pb−(PaPb/100) • wherein Pa+b is the percentage effect of the mixture expected from additive contribution of the individual components, • Pa is the observed percentage effect of the first active ingredient at the same use rate as in the mixture, and • Pb is the observed percentage effect of the second active ingredient at the same use rate as in the mixture.

giant foxtail (SETFA) = assay: Test 10 field trial, preemergence; type: in vivo, Setaria faberi; details: 28 DAA
Description: as §1

corn (ZEAMD) [2] = assay: Test 8 field trial, preemergence; type: in vivo, Zea mays ssp. indentata; details: hybrid Pioneer 31G96, corn (Zea mays ssp. indentata), in vivo, 56 days after application
Description: (§4) Corn seeds (hybrid ‘Pioneer 31G96’) were planted in mid spring season, 3.8 cm deep in a clay loam soil having 2% organic matter and a pH of 6.6. Plots were 6.1 m long by 3.0 m wide with rows spaced 76 cm apart. Seeds were spaced 15 cm apart within the rows. The field was managed using conventional tillage practices. […] A few of the weed species could not be evaluated at every timing. […] Results are the means of the three replicates.

[3] = system: ivyleaf morningglory (IPOHE); assay: Test 8 field trial, preemergence; type: in vivo, Ipomoea hederacea
Description: as §4

redroot pigweed (AMARE) = assay: Test 1 field trial, preemergence; type: in vivo, Amaranthus retroflexus
Description: as §2, §3

Surinam grass (BRADC) = assay: Test 11 field trial, preemergence; type: in vivo, Brachiaria decumbens; parameters: scale not given here; details: alone or + atrazine 1500 or metolachlor 2500
Description: (§5) Corn seeds (hybrid ‘Pioneer 3041’) were planted in mid spring season, 5 cm deep in a clay soil having 2.6% organic matter and a pH of 5.6. Plots were 8 m long by 1.5 m wide with rows spaced 80 cm apart. Seeds were spaced 15 cm apart within the rows. The field was managed using conventional tillage practices. […] Treatments consisted of Compound 2 or
(§6) Goosegrass was not evaluated 16 or 91 days after application.

[4] = system: common lambsquarters (CHEAL); assay: Test 1 field trial, preemergence; type: in vivo, Chenopodium album
Description: as §2, §3

corn (ZEAMD) [5] = assay: Test 10 field trial, preemergence; type: in vivo, Zea mays ssp. indentata; details: hybrid Pioneer 33P65 RR, corn (Zea mays ssp. indentata), in vivo, 28 days after application
Description: as §1

[6] = system: Pennsylvania smartweed (POLPY); assay: Test 1 field trial, preemergence; type: in vivo, Polygonum pensylvanicum
Description: as §2, §3

[7] = system: common lambsquarters (CHEAL); assay: Test 6 field trial, postemergence; type: in vivo, Chenopodium album
Description: Corn seeds (hybrid ‘Pioneer 35Y62’) were planted in mid spring season, 3.8 cm deep in a silt loam soil having 4% organic matter and a pH of 5.8. Plots were 10.7 m long by 1.5 m wide with rows spaced 76 cm apart. Seeds were spaced 18 cm apart within the rows. The field was managed using conventional tillage practices. […] All treatments included a surfactant except glufosinate treatments, both alone and in combination. […] Results are summarized in Table 6 and are the means of the three replicates.

alexandergrass (BRAPL) = assay: Test 11 field trial, preemergence; type: in vivo, Brachiaria plantaginea; parameters: scale not given here; details: alone or + atrazine 1500 or metolachlor 2500
Description: as §5, §6

[8] = system: Ipomoea grandiflora (IPOGF); assay: Test 11 field trial, preemergence; type: in vivo
Description: as §5, §6

common blackjack (BIDPI) = assay: Test 11 field trial, preemergence; type: in vivo, Bidens pilosa; parameters: scale not given here; details: alone or + atrazine 1500 or metolachlor 2500
Description: as §5, §6

[9] = g a.i./ha: Cpd 2 50, S-Metolachlor 1870
[10] = g a.i./ha: Cpd 2 100, Atrazine 1680, S-Metolachlor 1870
[11] = g a.i./ha: Cpd 2 150, S-Metolachlor 1870
[12] = 56 DAA, g a.i./ha: Cpd 2 50, S-Metolachlor 1870
[13] = 56 DAA, g a.i./ha: Cpd 2 100, Atrazine 1680, S-Metolachlor 1870
[14] = 56 DAA, g a.i./ha: Cpd 2 150, S-Metolachlor 1870
[15] = 28 DAA, g a.i./ha: Cpd 2 50, S-Metolachlor 1870
[16] = 28 DAA, g a.i./ha: Cpd 2 100, Atrazine 1680, S-Metolachlor 1870
[17] = 28 DAA, g a.i./ha: Cpd 2 150, S-Metolachlor 1870
[18] = 16 DAA, Cpd 2/Cpd 1 at 62 g a.i./ha
[19] = 16 DAA, Cpd 2/Cpd 1 at 125 g a.i./ha
[20] = 30 DAA, Cpd 2/Cpd 1 at 62 g a.i./ha
[21] = 30 DAA, Cpd 2/Cpd 1 at 125 g a.i./ha
[22] = 44 DAA, Cpd 2/Cpd 1 at 62 g a.i./ha
[23] = 44 DAA, Cpd 2/Cpd 1 at 125 g a.i./ha
[24] = 62 DAA, Cpd 2/Cpd 1 at 62 g a.i./ha
[25] = 62 DAA, Cpd 2/Cpd 1 at 125 g a.i./ha
[26] = 91 DAA, Cpd 2/Cpd 1 at 62 g a.i./ha
[27] = 91 DAA, Cpd 2/Cpd 1 at 125 g a.i./ha

Compound: COC(=O)c1nc(C2CC2)nc(N)c1Cl [Compound 2, methyl 6-amino-5-chloro-2-cyclopropyl-4-pyrimidinecarboxylate]
- AMATA Obs (common waterhemp (AMATA); [9]): 20%
- AMATA Obs (common waterhemp (AMATA); [10]): 10%
- AMATA Obs (common waterhemp (AMATA); [11]): 23%
- ZEAMD Obs (corn (ZEAMD) [1]; 28 days after application): 0
- ZEAMD Obs (corn (ZEAMD) [1]; 56 days after application): 0
- SETFA Obs (giant foxtail (SETFA); [9]): 13%
- SETFA Obs (giant foxtail (SETFA); [10]): 7%
- SETFA Obs (giant foxtail (SETFA); [11]): 20%
- ZEAMD Obs (corn (ZEAMD) [2]): 0%
- IPOHE Obs ([3]; 19 DAA, g a.i./ha: Cpd 2 50, S-Metolachlor 1870): 58%
- IPOHE Obs ([3]; 19 DAA, g a.i./ha: Cpd 2 100, Atrazine 1680, S-Metolachlor 1870): 78%
- IPOHE Obs ([3]; 19 DAA, g a.i./ha: Cpd 2 150, S-Metolachlor 1870): 83%
- IPOHE Obs ([3]; 29 DAA, g a.i./ha: Cpd 2 50, S-Metolachlor 1870): 72%
- IPOHE Obs ([3]; 29 DAA, g a.i./ha: Cpd 2 100, Atrazine 1680, S-Metolachlor 1870): 97%
- IPOHE Obs ([3]; 29 DAA, g a.i./ha: Cpd 2 150, S-Metolachlor 1870): 96%
- IPOHE Obs [3, 12]: 82%
- IPOHE Obs [3, 13]: 100%
- IPOHE Obs [3, 14]: 100%
- AMARE Obs (redroot pigweed (AMARE); [15]): 0
- AMARE Obs (redroot pigweed (AMARE); [16]): 7
- AMARE Obs (redroot pigweed (AMARE); [17]): 58
- AMARE Obs (redroot pigweed (AMARE); [12]): 7
- AMARE Obs (redroot pigweed (AMARE); [13]): 55
- AMARE Obs (redroot pigweed (AMARE); [14]): 100
- BRADC Obs (Surinam grass (BRADC); [18]): 40
- BRADC Obs (Surinam grass (BRADC); [19]): 60
- BRADC Obs (Surinam grass (BRADC); [20]): 40
- BRADC Obs (Surinam grass (BRADC); [21]): 70
- BRADC Obs (Surinam grass (BRADC); [22]): 0
- BRADC Obs (Surinam grass (BRADC); [23]): 60
- BRADC Obs (Surinam grass (BRADC); [24]): 0
- BRADC Obs (Surinam grass (BRADC); [25]): 0
- BRADC Obs (Surinam grass (BRADC); [26]): 0
- BRADC Obs (Surinam grass (BRADC); [27]): 0
- CHEAL Obs [4, 15]: 0
- CHEAL Obs [4, 16]: 7
- CHEAL Obs [4, 17]: 7
- CHEAL Obs [4, 12]: 7
- CHEAL Obs [4, 13]: 55
- CHEAL Obs [4, 14]: 100
- ZEAMD Obs (corn (ZEAMD) [5]): 0%
- POLPY Obs [6, 15]: 0
- POLPY Obs [6, 16]: 0
- POLPY Obs [6, 17]: 0
- POLPY Obs [6, 12]: 0
- POLPY Obs [6, 13]: 0
- POLPY Obs [6, 14]: 0
- CHEAL Obs ([7]; 14 DAA, 30 g a.i./ha): 100%
- CHEAL Obs ([7]; 14 DAA, 60 g a.i./ha): 100%
- CHEAL Obs ([7]; 28 DAA, 30 g a.i./ha): 100%
- CHEAL Obs ([7]; 28 DAA, 60 g a.i./ha): 100%
- BRAPL Obs (alexandergrass (BRAPL); [18]): 40
- BRAPL Obs (alexandergrass (BRAPL); [19]): 70
- BRAPL Obs (alexandergrass (BRAPL); [20]): 0
- BRAPL Obs (alexandergrass (BRAPL); [21]): 75
- BRAPL Obs (alexandergrass (BRAPL); [22]): 0
- BRAPL Obs (alexandergrass (BRAPL); [23]): 60
- BRAPL Obs (alexandergrass (BRAPL); [24]): 0
- BRAPL Obs (alexandergrass (BRAPL); [25]): 0
- BRAPL Obs (alexandergrass (BRAPL); [26]): 0
- BRAPL Obs (alexandergrass (BRAPL); [27]): 0
- IPOGF Obs ([8]; 16 DAA, Cpd 2/Cpd 1 at 62 g a.i./ha, alone or + atrazine 1500 or metolachlor 2500): 0
- IPOGF Obs ([8]; 16 DAA, Cpd 2/Cpd 1 at 125 g a.i./ha, alone or + atrazine 1500 or metolachlor 2500): 40
- IPOGF Obs ([8]; 30 DAA, Cpd 2/Cpd 1 at 62 g a.i./ha, alone or + atrazine 1500 or metolachlor 2500): 40
- IPOGF Obs ([8]; 30 DAA, Cpd 2/Cpd 1 at 125 g a.i./ha, alone or + atrazine 1500 or metolachlor 2500): 60
- IPOGF Obs ([8]; 44 DAA, Cpd 2/Cpd 1 at 62 g a.i./ha, alone or + atrazine 1500 or metolachlor 2500): 0
- IPOGF Obs ([8]; 44 DAA, Cpd 2/Cpd 1 at 125 g a.i./ha, alone or + atrazine 1500 or metolachlor 2500): 50
- IPOGF Obs ([8]; 62 DAA, 62 g a.i./ha, scale 0 to 100): 0
- IPOGF Obs ([8]; 62 DAA, 125 g a.i./ha, scale 0 to 100): 0
- IPOGF Obs ([8]; 91 DAA, 62 g a.i./ha, scale 0 to 100): 0
- IPOGF Obs ([8]; 91 DAA, 125 g a.i./ha, scale 0 to 100): 0
- BIDPI Obs (common blackjack (BIDPI); [18]): 20
- BIDPI Obs (common blackjack (BIDPI); [19]): 60
- BIDPI Obs (common blackjack (BIDPI); [20]): 20
- BIDPI Obs (common blackjack (BIDPI); [21]): 40
- BIDPI Obs (common blackjack (BIDPI); [22]): 20
- BIDPI Obs (common blackjack (BIDPI); [23]): 60
- BIDPI Obs (common blackjack (BIDPI); [24]): 0
- BIDPI Obs (common blackjack (BIDPI); [25]): 40
- BIDPI Obs (common blackjack (BIDPI); [26]): 0
- BIDPI Obs (common blackjack (BIDPI); [27]): 40
